Results from US8703975B2, “Aryl (ethanoic) propanoic acid ascorbyl ester, preparation method thereof and medicament containing the same” (Wuxi Hongrui Bio-Pharma-Tech Co., Ltd., priority 2009, dated 2014).

What was measured:
[1] = Solubility in solvents and water; type: physicochemical
[2] = system: Arteriovenous Loop Thrombus; assay: Arteriovenous loop thrombus in rats, thrombus wet weight and inhibition rate; type: in vivo; conditions: 5.4 mg·kg^−1 by gavage for 3 days
Description: Normal rats, half male and half female, were randomly grouped according to table 1. The administration group was given water solution of Sodium Salt L-ascorbic acid-6-O—(S)-ibuprofen ester (pH 7.4) by gavage and the control group was given equivalent pH normal saline for continuous 3 days. The rat was intraperitoneally injected with 350 mg of 8% chloral hydrate per kg for anesthesia 1 h after the last administration, and then fixed in the supine position to separate the right common carotid artery and the left external jugular vein. An early weighed No. 7 operation line (about 8 cm long) was placed in the middle of a 10 cm long polyethylene tube, and then the tube was filled with normal saline and both ends of the tube were connected with an intubation filled with heparin (about 3 cm long), in which one end was inserted into the jugular vein, and the other end was inserted into the common carotid artery. After opening the artery clip, the in vitro loop flow was formed. The blood flow was interrupted after 15 min followed by quickly taking the thrombus and weighing. […]
Statistical analysis: the experimental data was represented as x±s, and the significance of the differences was determined with one-factor analysis of variance. t represented t-test results between the control group and the Sodium Salt L-ascorbic acid-6-O—(S)-ibuprofen ester.

Structure (SMILES) | Solubility ([1]; in chloroform) | Solubility ([1]; in cyclohexane) | Solubility ([1]; in ethanol) | Solubility ([1]; in methanol) | Solubility ([1]; in propylene glycol) | Solubility ([1]; in water) | thrombus wet weight/body weight × 100 ([2]; 1 h after last administration, 15 min loop flow, x±s) | Thrombus inhibition rate ([2]; versus control group) [%] | solubility in water ([1]; water) [g]
CC(C)Cc1ccc([C@H](C)C(=O)OC[C@H](O)[C@H]2OC(=O)C(O)=C2O)cc1 [Embodiment 1, L-Ascorbic Acid-6-O—(S)-Ibuprofen Ester] | insoluble | insoluble | soluble | soluble | soluble | insoluble | – | – | –
CC(C)Cc1ccc([C@H](C)C(=O)OC[C@H](O)[C@H]2OC(=O)C(O)=C2[O-])cc1.[Na+] [Sodium Salt L-Ascorbic Acid-6-O—(S)-Ibuprofen Ester] | – | – | – | – | – | – | 10.372 ± 0.801 | 12.9 | 12.8
